Key:
[1] = target: T1, human GC-A (Homo sapiens, UniProt P16066); experiment: ex vivo cGMP generation in HEK293 GC-A cells incubated with human plasma; assay type: cell-based
T1 construct: expressed in transfected cells; host or cells: HEK293
T1 sequence (P16066 33-1061): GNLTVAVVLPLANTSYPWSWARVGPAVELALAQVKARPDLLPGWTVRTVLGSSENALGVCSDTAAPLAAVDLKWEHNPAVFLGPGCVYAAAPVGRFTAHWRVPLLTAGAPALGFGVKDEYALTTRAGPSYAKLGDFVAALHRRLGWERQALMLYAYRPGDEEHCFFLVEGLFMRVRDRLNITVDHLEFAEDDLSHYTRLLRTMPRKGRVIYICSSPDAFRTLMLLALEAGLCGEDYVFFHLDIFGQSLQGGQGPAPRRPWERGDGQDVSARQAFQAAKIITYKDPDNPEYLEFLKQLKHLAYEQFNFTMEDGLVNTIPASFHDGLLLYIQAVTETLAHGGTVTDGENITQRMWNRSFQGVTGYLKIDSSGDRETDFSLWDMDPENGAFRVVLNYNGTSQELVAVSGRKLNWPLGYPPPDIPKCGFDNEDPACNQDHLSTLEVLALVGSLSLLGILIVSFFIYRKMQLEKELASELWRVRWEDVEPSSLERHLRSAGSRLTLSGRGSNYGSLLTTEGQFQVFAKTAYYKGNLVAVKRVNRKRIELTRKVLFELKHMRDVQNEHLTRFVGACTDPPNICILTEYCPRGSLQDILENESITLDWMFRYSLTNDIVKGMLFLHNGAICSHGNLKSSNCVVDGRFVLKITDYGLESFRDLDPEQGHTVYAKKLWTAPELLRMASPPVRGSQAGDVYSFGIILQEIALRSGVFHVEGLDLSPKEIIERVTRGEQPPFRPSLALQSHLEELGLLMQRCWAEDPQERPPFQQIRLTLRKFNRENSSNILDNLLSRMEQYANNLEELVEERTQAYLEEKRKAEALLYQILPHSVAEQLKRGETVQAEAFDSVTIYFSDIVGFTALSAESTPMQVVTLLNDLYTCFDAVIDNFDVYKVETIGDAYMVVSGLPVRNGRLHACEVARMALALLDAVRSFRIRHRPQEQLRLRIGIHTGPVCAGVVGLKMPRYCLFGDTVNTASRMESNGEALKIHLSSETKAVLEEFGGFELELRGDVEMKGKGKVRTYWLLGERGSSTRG
T1 sequence (P01160 124-151 partner limits assumed): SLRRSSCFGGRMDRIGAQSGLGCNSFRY
Procedure: Methods: Stored human plasma samples from normal subjects and patients with hypertension and HF were utilized. The details of the recruitment of these participants are previously reported. All participants gave written informed consent and the Institutional Review Board (IRB) at Mayo Clinic approved this study. […] HEK293 overexpressing human GC-A were cultured and grown as described above. Cells were grown in 48-well plates to 80-90% confluence. On the day of the experiment, cells were pre-incubated with Compound 19 at doses of 1, 5 or 10 μM and without (Veh) in 250 μL treatment buffer for 5 min at 37° C. 25 μL of human plasma was then added and incubated for additional 10 min. After, cells were washed with PBS once, lysed with 0.1M HCl and intracellular cGMP levels were measured in the lysate using a commercial cGMP ELISA kit (Enzo Life Sciences, Farmingdale, N.Y.) as instructed by the manufacturer.

[2] = plasma stability, mouse; assay type: in vitro ADME
[3] = target: T2, particulate guanylyl cyclase B receptor (pGC-B) (Homo sapiens, UniProt P20594); experiment: cGMP selectivity assay in HEK cells overexpressing pGC-B with CNP; assay type: cell-based; conditions: in the presence of CNP
T2 construct: expressed in transfected cells; host or cells: HEK
T2 sequence (P20594 23-1047): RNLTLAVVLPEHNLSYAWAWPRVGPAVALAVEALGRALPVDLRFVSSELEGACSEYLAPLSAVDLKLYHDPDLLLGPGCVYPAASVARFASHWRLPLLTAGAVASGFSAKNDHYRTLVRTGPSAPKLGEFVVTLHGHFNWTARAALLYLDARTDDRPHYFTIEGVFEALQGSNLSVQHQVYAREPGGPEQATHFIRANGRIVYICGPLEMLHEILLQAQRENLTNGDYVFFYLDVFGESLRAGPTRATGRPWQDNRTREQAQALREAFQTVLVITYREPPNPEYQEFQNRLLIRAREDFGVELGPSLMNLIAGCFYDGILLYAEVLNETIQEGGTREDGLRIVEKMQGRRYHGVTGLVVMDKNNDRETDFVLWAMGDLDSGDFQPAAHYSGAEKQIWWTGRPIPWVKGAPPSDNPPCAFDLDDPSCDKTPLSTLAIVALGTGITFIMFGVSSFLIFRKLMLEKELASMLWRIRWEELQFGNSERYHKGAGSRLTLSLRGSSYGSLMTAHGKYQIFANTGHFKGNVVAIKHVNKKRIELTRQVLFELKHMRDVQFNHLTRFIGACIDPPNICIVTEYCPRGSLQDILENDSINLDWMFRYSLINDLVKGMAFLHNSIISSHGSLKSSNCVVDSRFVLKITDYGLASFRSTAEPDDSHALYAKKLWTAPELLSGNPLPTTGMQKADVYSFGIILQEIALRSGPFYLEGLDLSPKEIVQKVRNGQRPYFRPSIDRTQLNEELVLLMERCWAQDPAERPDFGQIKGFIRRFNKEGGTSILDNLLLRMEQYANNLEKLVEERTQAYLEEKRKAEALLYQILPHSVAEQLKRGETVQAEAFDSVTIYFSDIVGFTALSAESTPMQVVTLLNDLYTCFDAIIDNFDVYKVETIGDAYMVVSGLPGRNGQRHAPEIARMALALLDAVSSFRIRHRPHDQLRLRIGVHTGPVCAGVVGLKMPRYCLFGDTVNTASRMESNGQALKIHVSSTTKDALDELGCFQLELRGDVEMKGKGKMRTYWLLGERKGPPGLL

[4] = plasma stability, human; assay type: in vitro ADME
[5] = tested on: primary human adipocytes (HAs; visceral and subcutaneous); experiment: cGMP generation in primary human adipocytes (visceral and subcutaneous); assay type: cell-based

CN(C)CCN1CCCC(C(=O)Nc2nc3c(F)cc(F)cc3s2)C1 (stereo not shown) [Compound 19]
generation of cGMP levels in HEK293 GC-A cells ([1]; 1, 5 or 10 μM with human plasma from normal, hypertension and HF cohorts): potentiated the generation of cGMP levels | cGMP potency by plasma cohort ([1]; HF plasma, highest circulating ANP and BNP): greatest cGMP potency | Plasma Stability (% remaining at 1 h) [2]: 109.7% | cGMP activity in cells expressing pGC-B [3]: devoid of cGMP activity | Plasma Stability (% remaining at 1 h) [4]: 107.4% | cGMP generation ([5]; HAs, 1, 5 and 10 μM compound in the presence of ANP (10^−10 M)): clear increase in cGMP generation | cGMP generation ([5]; HAs, compound alone at similar dose, no ANP): did not generate cGMP generation
